Test results from patent publication US20100061948A1, “COMPOSITION FOR SKIN WHITENING COMPRISING ARTEMISININE” (priority 2007, published 2010).

What was measured:
[1] = test system: brown guinea pigs (Tortoiseshell guinea pigs); test: Whitening effect on UV-induced pigmentation in brown guinea pigs (chromameter L*); assay type: in vivo; conditions: topical once or twice a day for 50 days, UV-pigmented guinea pig skin
Excerpt: In order to confirm the whitening effect of artemisinine in animals, brown guinea pigs (Tortoiseshell guinea pigs), which are known to increase pigmentation upon exposure to UV like human, were used to perform the following experiment.
(§1) To cause pigmentation in the brown guinea pig by UV, light-shielding aluminum foil with windows of 3×3 cm^2 was adhered to hair-removed abdominal skin of brown guinea pig, and then UV light was irradiated thereon with a SE lamp (wavelength 290-320 nm, Toshiba) (total irradiation energy=1350 mJ/cm^2). After UV irradiation, the aluminum foil was removed, and then the samples (artemisinine and arbutin) were applied as follows. […] From the maximum, each sample was applied. Applications were performed once or twice a day for 50 days. The samples were dissolved and diluted in a certain solvent (a mixed solvent of propylene glycol:ethanol:water=5:3:2) and applied with a swab. Another region was applied with the solvent only as a control. Occurrence of cumulative irritation also was examined.
The degree of skin pigmentation was determined using a chromameter (MINOLTA CR2002) to evaluate the effects. L*A*B* colorimetric system is used to classify color, and an L* value was used as standard in the present invention. The L* value was corrected using white board standard, and measured more than five times at one region, repeatedly. Pigmentation was evenly distributed. Skin color differences (ΔL*) between initial application point and terminal application point were obtained by using the following Mathematical Equation 1, and then using these values, their effects of the applied samples were evaluated.
ΔL*=L*value at terminal application day−L*value at initial application day [Mathematical Equation 1]
ΔL* values were obtained at sample application region and control application region and compared. From the result, the whitening effects of the samples can be evaluated.

tyrosinase = target: T1, tyrosinase (Mus musculus, UniProt P11344); test: Inhibitory effect on tyrosinase activity in murine B16 melanoma cells; assay type: cell-based; conditions: B16 F10 cells, 3 days, read-out: Inhibition rate of tyrosinase activity (%)
T1 construct: endogenous in cells; host or cells: murine melanoma B16 F10 cells
T1 sequence (P11344 19-533): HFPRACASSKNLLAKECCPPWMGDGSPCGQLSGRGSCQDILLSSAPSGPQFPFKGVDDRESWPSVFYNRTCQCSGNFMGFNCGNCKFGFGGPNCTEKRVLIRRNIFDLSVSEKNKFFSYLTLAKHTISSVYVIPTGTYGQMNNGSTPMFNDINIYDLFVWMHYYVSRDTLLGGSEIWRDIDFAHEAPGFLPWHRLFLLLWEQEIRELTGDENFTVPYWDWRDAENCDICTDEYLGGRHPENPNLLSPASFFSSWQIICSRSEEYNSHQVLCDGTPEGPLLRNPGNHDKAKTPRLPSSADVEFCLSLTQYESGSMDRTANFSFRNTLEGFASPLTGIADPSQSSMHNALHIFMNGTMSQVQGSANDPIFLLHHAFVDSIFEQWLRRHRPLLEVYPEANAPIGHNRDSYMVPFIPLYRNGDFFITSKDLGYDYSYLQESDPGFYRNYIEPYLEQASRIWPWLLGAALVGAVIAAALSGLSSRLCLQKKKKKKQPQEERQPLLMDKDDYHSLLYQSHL
Method: In order to confirm the inhibitory effect of artemisinine on tyrosinase activity, murine B16 melanoma cells were used to perform the following experiment.
Murine melanoma (B16 F10) cells were inoculated on 6 well plates containing DMEM media supplemented with 10% FBS (1×10^5 per well), and cultured in 5% CO2 at 37° C. until reaching about 80% confluency. Then, media was removed from the cells, replaced with fresh media, and cultured in 5% CO2 at37° C. for 3 days. […] Media was removed from the cells, and the cells were washed with PBS, followed by trypsin treatment. The cells were recovered, and counted using a hematocytometer. Then, the cells were centrifuged at 5,000 to 10,000 rpm for 10 min, and the supernatant was removed to obtain a pellet. The pellet was suspended in a lysis buffer, and centrifuged at 12,000 rpm for 10 min to collect the supernatant. Absorbance was determined at 492 nm using a microplate reader to assess the tyrosinase activity per cell. As a control group, arbutin was used.

[2] = test system: Murine melanoma (B16 F10) cells; test: Inhibitory effect on melanin synthesis in murine B16 melanoma cells; assay type: cell-based; conditions: Mus musculus, 72 h, 3 days, read-out: Inhibition rate of melanin synthesis (%)
Method: In order to confirm the inhibitory effect of artemisinine on melanin synthesis, murine B16 melanoma cells were used to perform the following experiment.
Artemisinine used in the present experiment was purchased from Sigma.
Murine melanoma (B16 F10) cells were inoculated on 6 well plates containing DMEM media supplemented with 10% FBS (fetal bovine serum) (1×10^5 per well), and cultured in 5% CO2 at37° C. until reaching about 80% confluency. Then, media was removed from the cells, replaced with fresh media, and cultured in 5% CO2 at 37° C. for 3 days. […] Media was removed from the cells, and the cells were washed with PBS (phosphate buffered saline), followed by trypsin treatment. The cells were recovered, and counted using a hemocytometer. Then, the cells were centrifuged at 5,000 to 10,000 rpm for 10 min, and the supernatant was removed to obtain a pellet. The pellet was dried at 60° C., and suspended in 100 […] of 1 M sodium hydroxide solution containing 10% DMSO in a 60° C. water bath to obtain melanin in the cells. Absorbance was determined at 490 nm using a microplate reader to assess the melanin content per cell. As a control group, a known inhibitor of melanin synthesis, arbutin, was used.

[3] = test system: Murine melanoma (B16 F10) cells; test: Cytotoxicity at treatment concentrations in B16 F10 cells; assay type: cell-based; conditions: 10 μM, 50 μM and 100 μM
[4] = test system: brown guinea pigs (Tortoiseshell guinea pigs); test: Cumulative irritation examined in brown guinea pigs; assay type: in vivo; conditions: topical application for 50 days, guinea pig
Excerpt: as §1

Compound	Whitening effect (ΔL*) ([1]; 1.0 %)	inhibition at 100 µM (tyrosinase)	inhibition at 100 µM [2]	Whitening effect (ΔL*) ([1]; 0.2 %)	inhibition at 10 µM (tyrosinase; 10 μM)	inhibition at 50 µM (tyrosinase; 50 μM)	Cytotoxicity [3]	Cumulative irritation [4]	inhibition at 10 µM ([2]; 10 μM)	inhibition at 50 µM ([2]; 50 μM)
OC[C@H]1O[C@@H](Oc2ccc(O)cc2)[C@H](O)[C@@H](O)[C@@H]1O [Arbutin, arbutin]	0.55	45%	52%	–	–	–	–	–	–	–
C[C@@H]1CC[C@H]2[C@@H](C)C(=O)O[C@@H]3O[C@@]4(C)CC[C@@H]1[C@]32OO4 [Artemisinine, artemisinine]	0.65	67%	65%	0.40	19%	38%	no cytotoxicity	no cumulative irritation	22%	50%
